Measured values taken from the supplement of paper PMC4862054.

Columns and labels:
Settings in all cases: incubation time: 72 h
BT-474 [1] = experiment: drug sensitivity score (DSS), CellTiter-Glo (DSS (AUC-based score)); higher = stronger drug effect (viability inhibition or cytotoxicity); extreme values may be limits of the assay
In short: (§1)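 Compound was dispensed into 384-well plates at 5 concentrations in 10-fold steps spanning a 10,000-fold range chosen for each compound, and 20 µl of breast cancer cell suspension was added before 72 h of incubation. CellTox Green fluorescence was read at 485/520 nm, followed by CellTiter-Glo luminescence after 10 min at room temperature. Values on each plate were normalised to 0.1 % DMSO and a positive kill control. The drug sensitivity score came from the area under the fitted dose-response curve.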

BT-549 = experiment: as above
In short: as §1

CAL-120 [2] = experiment: as above
In short: as §1

CAL-148 = experiment: as above
In short: as §1

CAL-51 = experiment: as above
In short: as §1

CAL-85-1 [3] = experiment: as above
In short: as §1

HCC1599 [4] = experiment: as above
In short: as §1

HCC1937 = experiment: as above
In short: as §1

HDQ-P1 = experiment: as above
In short: as §1

Hs578T [5] = experiment: as above
In short: as §1

MCF-10A = experiment: as above
In short: as §1

MDA-MB-231 [6] = experiment: as above
In short: as §1

MDA-MB-436 [7] = experiment: as above
In short: as §1

MDA-MB-453 = experiment: as above
In short: as §1

MDA-MB-468 = experiment: as above
In short: as §1

MFM-223 [8] = experiment: as above
In short: as §1

SK-BR-3 = experiment: as above
In short: as §1

BT-474 [9] = experiment: drug sensitivity score (DSS), CellTox Green (DSS (AUC-based score)); higher = stronger drug effect (viability inhibition or cytotoxicity); extreme values may be limits of the assay
In short: as §1

CAL-120 [10] = experiment: as above
In short: as §1

CAL-85-1 [11] = experiment: as above
In short: as §1

DU-4475 = experiment: as above
In short: as §1

HCC1143 = experiment: as above
In short: as §1

HCC1599 [12] = experiment: as above
In short: as §1

Hs578T [13] = experiment: as above
In short: as §1

MDA-MB-231 [14] = experiment: as above
In short: as §1

MDA-MB-436 [15] = experiment: as above
In short: as §1

MFM-223 [16] = experiment: as above
In short: as §1

| SMILES | drug sensitivity score (BT-474 [1]) | drug sensitivity score (BT-549) | drug sensitivity score (CAL-120 [2]) | drug sensitivity score (CAL-148) | drug sensitivity score (CAL-51) | drug sensitivity score (CAL-85-1 [3]) | drug sensitivity score (HCC1599 [4]) | drug sensitivity score (HCC1937) | drug sensitivity score (HDQ-P1) | drug sensitivity score (Hs578T [5]) | drug sensitivity score (MCF-10A) | drug sensitivity score (MDA-MB-231 [6]) | drug sensitivity score (MDA-MB-436 [7]) | drug sensitivity score (MDA-MB-453) | drug sensitivity score (MDA-MB-468) | drug sensitivity score (MFM-223 [8]) | drug sensitivity score (SK-BR-3) | drug sensitivity score (BT-474 [9]) | drug sensitivity score (CAL-120 [10]) | drug sensitivity score (CAL-85-1 [11]) | drug sensitivity score (DU-4475) | drug sensitivity score (HCC1143) | drug sensitivity score (HCC1599 [12]) | drug sensitivity score (Hs578T [13]) | drug sensitivity score (MDA-MB-231 [14]) | drug sensitivity score (MDA-MB-436 [15]) | drug sensitivity score (MFM-223 [16]) |
| --- | --- | --- | --- | --- | --- | --- | --- | --- | --- | --- | --- | --- | --- | --- | --- | --- | --- | --- | --- | --- | --- | --- | --- | --- | --- | --- | --- |
| C[C@]12O[C@H](C[C@]1(O)CO)n1c3ccccc3c3c4c(c5c6ccccc6n2c5c31)CNC4=O [Lestaurtinib] | 3.87 | 7.26 | 7.69 | 0 | 0.729 | 4.38 | 7.24 | 2.31 | 2.59 | 3.6 | 8.64 | 2.14 | 3.31 | 5.26 | 11.8 | 4.3 | 8.99 | 0.706 | 0 | 5.21 | 0 | 0 | 4.55 | 4.21 | 0.0124 | 8.14 | 0 |
| CC(=O)OC[C@H]1O[C@@H]([S-])[C@H](OC(C)=O)[C@@H](OC(C)=O)[C@@H]1OC(C)=O.CCP(CC)CC.[Au+] [Auranofin] | 1.22 | 9.2 | 0.998 | 1.24 | 11.7 | 6.05 | 1.36 | 7.45 | 3.9 | 3.87 | 1.42 | 4.38 | 5.88 | 6.93 | 14.9 | 2.71 | 1.76 | 3.42 | 0.776 | 4.88 | 0 | 0.33 | 0 | 0 | 3.16 | 0 | 1.22 |
| O=C1c2c(O)ccc(O)c2C(=O)c2c(NCCNCCO)ccc(NCCNCCO)c21 [Mitoxantrone] | 0 | 0 | 0 | 3.82 | 2.13 | 0 | 0 | 0 | 0.578 | 0 | 0 | 0 | 5.91 | 0 | 0 | 0 | 0 | 0 | 0 | 0 | 0 | 0 | 0 | 0 | 0 | 0 | 0 |
